Results from US20260258039A1, “AROMATIC COMPOUND, METHOD FOR PREPARING SAME, AND USE THEREOF IN PREPARATION OF ESTROGEN RECEPTOR DEGRADER” (Hinova Pharmaceuticals Inc., priority 2022, published 2026).

Biological target: T1, ER (Homo sapiens, UniProt P03372)
T1 construct: T47D breast cancer cells were subcultured in cell culture medium; endogenous in cells; host or cells: T47D breast cancer cells
T1 sequence (P03372 1-595): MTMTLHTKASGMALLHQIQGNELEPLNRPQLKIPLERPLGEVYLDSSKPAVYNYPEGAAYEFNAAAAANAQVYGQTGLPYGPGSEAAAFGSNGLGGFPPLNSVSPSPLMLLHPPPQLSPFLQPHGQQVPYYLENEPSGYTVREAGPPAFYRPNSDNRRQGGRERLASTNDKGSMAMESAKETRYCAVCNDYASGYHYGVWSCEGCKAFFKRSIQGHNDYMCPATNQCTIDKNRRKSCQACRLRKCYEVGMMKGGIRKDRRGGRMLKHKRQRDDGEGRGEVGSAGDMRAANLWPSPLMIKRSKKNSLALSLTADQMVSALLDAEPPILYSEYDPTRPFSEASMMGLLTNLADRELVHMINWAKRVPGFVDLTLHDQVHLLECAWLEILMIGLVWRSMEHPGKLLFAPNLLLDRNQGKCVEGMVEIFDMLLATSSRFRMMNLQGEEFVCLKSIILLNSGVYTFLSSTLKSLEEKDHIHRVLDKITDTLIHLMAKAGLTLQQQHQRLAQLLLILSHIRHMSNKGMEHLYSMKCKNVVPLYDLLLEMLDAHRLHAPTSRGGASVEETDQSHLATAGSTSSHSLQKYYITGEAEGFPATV
Assay: Degradation activities on ER (ELISA) in T47D breast cancer cells
Type: cell-based
Details: T47D cells, 24 h, ELISA; for DC50: concentration required to degrade 50% of the target protein; for Dmax: maximum percentage of target protein degraded, read-out: Dmax
Procedure: T47D breast cancer cells were subcultured in cell culture medium, and then the cells in good growth condition were seeded into 96-well plates at 80 µL/well, with 2.5×10^4 cells per well. The cells were incubated in a 37° C., 5% CO2 incubator for 3 days. The drug was prepared into a 10 mM stock solution with dimethyl sulfoxide (DMSO). Prior to use, the stock solution was diluted with cell culture medium to obtain six final concentrations (100 nM, 25 nM, 6.25 nM, 1.56 nM, 0.39 nM, and […]), and gently mixed. Additionally, negative control wells (only containing culture medium) and positive control wells (only containing cells and DMSO) were included. After the cells were incubated in the incubator for 24 h, the cells were rinsed once with ice-cold 1×PBS. […] The plate was sealed with plastic film, and incubated in a 37° C. incubator for 2 h. The film was removed. 200 μL of 1× washing buffer was added to each well, and then the plate was shaken for 5 min. The washing buffer was discarded, and the plate was pat-dried. The plate was washed four times. 100 μL of freshly prepared detection antibody (green) was added to each well of the ELISA plate. The plate was sealed with plastic film, and then incubated in a 37° C. incubator for 1 h. The film was removed, and the detection antibody was discarded. The plate was pat-dried. 200 μL of 1× washing buffer was added to each well, and then the plate was shaken for 5 min. The washing buffer was discarded, and the plate was pat-dried. The plate was washed four times. 100 μL of freshly prepared HRP-labeled secondary antibody (red) was added to each well of the ELISA plate. The plate was sealed with plastic film, and incubated in a 37° C. incubator for 30 min. The film was removed, the secondary antibody was discarded, and the plate was pat-dried, followed by adding 200 μL of 1× washing buffer to each well. The plate was shaken for 5 min, and the washing buffer was discarded before pat-drying the plate. The plate was washed four times. 100 μl of TMB substrate was added to each well of the ELISA plate, followed by incubating in a 37° C. incubator for 5 min. 100 μL of STOP solution was added to each well of the ELISA plate, and the plate was gently shaken for a few seconds. The bottom of each well was wiped with lint-free cloth. Within 30 min after adding the STOP solution, the absorbance was read at 450 nm. […] The data were analyzed using the Dose-response equation in GraphPad Prism8 software to obtain the DC50 and Dmax values, and both of them are important indicators for measuring the degradation activities of compounds on target proteins. […] The Dmax value represents the maximum percentage of target protein that can be degraded by the compound.

SMILES	DC50 [nM]	Dmax [%]
O=C1CCC(N2C(=O)c3ccc(N4CC5(CN(CC6CCN(c7ccc([C@@H]8c9ccc(O)cc9CC[C@@H]8c8ccccc8)cc7)CC6)C5)C4)cc3C2=O)C(=O)N1 (stereo partly drawn) [Example 3, 2-(2,6-dioxopiperidin-3-yl)-5-(6-((1-(4-((1R,2S)-6-hydroxyl-2-phenyl-1,2,3,4-tetrahydronaphthalen-1-yl)phenyl)piperidin-4-yl)methyl)-2,6-diazaspiro[3.3]heptan-2-yl)isoinodolin-1,3-dione]	> 100	
O=C1CCC(N2Cc3cc(N4CC5(CCN(CC6CN(c7ccc(C8c9ccc(O)cc9OC[C@@H]8c8ccccc8F)cc7)C6)CC5)C4)ccc3C2=O)C(=O)N1 (stereo partly drawn) [Example 5, 3-(5-(7-((1-(4-(cis-3-(2-fluorophenyl)-7-hydroxypyran-4-yl)phenyl)azetidin-3-yl)methyl)-2,7-diazaspiro[3.5]nonane-2-yl)-1-oxoisoinodolin-2-yl)piperidin-2,6-dione]	> 100	50 to 75
O=C1CCC(N2Cc3cc(N4CCC(N5CC6(CCN(c7ccc([C@@H]8c9ccc(O)cc9OC[C@@H]8c8ccccc8)cc7)CC6)C5)CC4)ccc3C2=O)C(=O)N1 (stereo partly shown) [Example 13]	< 10	> 75
O=C1CCC(N2Cc3cc(N4CCC(N5CC6(CCN(c7ccc([C@H]8c9ccc(O)cc9OC[C@H]8c8ccccc8F)cc7)CC6)C5)CC4)ccc3C2=O)C(=O)N1 (stereo partly shown) [Example 15]	> 100	< 50
O=C1CCC(N2Cc3cc(N4CCC(N5CC6(CCN(c7ccc([C@@H]8c9ccc(O)cc9CC[C@@H]8c8ccccc8F)cc7)CC6)C5)CC4)ccc3C2=O)C(=O)N1 (stereo partly drawn) [Example 19, 3-(5-(4-(7-(4-(cis-2-(2-fluorophenyl)-6-hydroxyl-1,2,3,4-tetrahydronaphthalen-1-yl)phenyl)-2,7-diazaspiro[3.5]nonane-2-yl)piperidin-1-yl)-1-oxoisoinodolin-2-yl)piperidin-2,6-dione]	< 10	> 75
O=C1CCC(N2Cc3cc(N4CCC(N5CC6(CCN(c7ccc([C@@H]8c9ccc(O)cc9OC[C@@H]8c8ccccc8F)cc7)CC6)C5)CC4)ccc3C2=O)C(=O)N1 (stereo partly drawn) [Example 20, 3-(5-(4-(7-(4-(cis-3-(2-fluorophenyl)-7-hydroxychroman-4-yl)phenyl)-2,7-diazaspiro[3.5]nonane-2-yl)piperidin-1-yl)-1-oxoisoinodolin-2-yl)piperidin-2,6-dione]	< 10	

Continued, values first:

DC50 [nM]	Dmax [%]	SMILES
< 10	50 to 75	O=C1CCC(N2Cc3cc(N4CC5(CCN(CC6CCN(c7ccc([C@@H]8c9ccc(O)cc9OC[C@@H]8c8cccc(F)c8F)cc7)CC6)CC5)C4)ccc3C2=O)C(=O)N1 (relative stereo) [Example 36, 3-(5-(7-((1-(4-(cis-3-(2,3-difluorophenyl)-7-hydroxychroman-4-yl)phenyl)piperidin-4-yl)methyl)-2,7-diazaspiro[3.5]nonane-2-yl)-1-oxoisoindol-2-yl)piperidin-2,6-dione]
> 100	< 50	O=C1CCC(N2Cc3cc(N4CCC(N5CC6(CCN(c7ccc([C@H]8c9ccc(O)cc9CC[C@H]8c8ccccc8F)cc7)CC6)C5)CC4)ccc3C2=O)C(=O)N1 (stereo partly drawn) [Example 21, 3-(5-(4-(7-(4-((1S,2R)-2-(2-fluorophenyl)-6-hydroxyl-1,2,3,4-tetrahydronaphthalen-1-yl)phenyl)-2,7-diazaspiro[3.5]nonane-2-yl)piperidin-1-yl)-1-oxoisoinodolin-2-yl)piperidin-2,6-dione]
10 to 50	> 75	O=C1CCC(N2Cc3cc(N4CCC(N5CC6(CCN(c7ccc([C@@H]8c9ccc(O)cc9OC[C@@H]8c8ccccc8)cc7F)CC6)C5)CC4)ccc3C2=O)C(=O)N1 (stereo partly drawn) [Example 23, 3-(5-(4-(7-(4-(cis-3-(2-fluorophenyl)-7-hydroxychroman-4-yl)phenyl)-2,7-diazaspiro[3.5]nonane-2-yl)piperidin-1-yl)-1-oxoisoinodolin-2-yl)piperidin-2,6-dione]
